Reference: patent publication US20100048462A1, “TRUNCATED PTH PEPTIDES WITH A CYCLIC CONFORMATION” (Zealand Pharma A/S, priority 2006, published 2010)
Bridge positions count the residues as written; N and C are the ends. Square brackets hold non-standard residues; d marks the D form. Peptide text beside a SMILES is read from it. I, II: the chains in the order shown. hArg = N=C(N)NCCCC[C@H](N)C(=O)O; Ac5c = NC1(C(=O)O)CCCC1; Aib = CC(C)(N)C(=O)O

Target: T1, PTH receptor 1 (Mus musculus, UniProt P41593)
T1 construct: host or cells: MC3T3-E1 subclone 4
T1 sequence (P41593 27-591): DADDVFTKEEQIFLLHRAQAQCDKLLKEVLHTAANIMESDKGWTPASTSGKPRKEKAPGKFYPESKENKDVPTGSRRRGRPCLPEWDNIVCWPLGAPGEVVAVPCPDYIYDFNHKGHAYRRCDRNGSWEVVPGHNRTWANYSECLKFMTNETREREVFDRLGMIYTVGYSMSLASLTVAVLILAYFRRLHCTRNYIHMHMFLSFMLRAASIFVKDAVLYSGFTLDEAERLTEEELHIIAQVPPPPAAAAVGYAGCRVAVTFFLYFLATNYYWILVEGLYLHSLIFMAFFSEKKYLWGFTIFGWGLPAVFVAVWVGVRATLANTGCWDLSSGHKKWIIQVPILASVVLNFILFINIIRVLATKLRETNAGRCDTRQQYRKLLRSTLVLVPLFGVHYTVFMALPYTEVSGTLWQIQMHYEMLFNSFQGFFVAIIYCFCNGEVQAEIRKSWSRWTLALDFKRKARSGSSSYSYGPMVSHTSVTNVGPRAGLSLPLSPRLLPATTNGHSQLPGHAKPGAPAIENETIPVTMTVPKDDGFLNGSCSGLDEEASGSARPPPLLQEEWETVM
Assay: MC3T3-E1 cAMP efficacy assay
Format: cell-based, murine
Conditions: MC3T3-E1 cells
Experimental: MC3T3-E1 cells were seeded at 10,000 cells/well in 96-microtiter plates and grown overnight before the efficacy assays. On the day of analysis the growth medium was carefully removed by suction. Cells were washed once with 200 μl TB/0.1% […]. The buffer was replaced with 100 μl reaction mixture (±test peptide, +100 μM IBMX) and incubated at 37° C. for 13 min. The reaction was stopped by addition of 25 μl of ice-cold 0.5 M HCl. Cells were in the following incubated on ice for 60 min. 75 μl acetate-buffer were added to each well in a 96-well cAMP FlashPlate. […] FlashPlates were incubated overnight at 4° C., emptied by suction and counted in a TopCounter.
Determinations were performed in triplicates at all doses. Standards were included as single determinations, duplicates or triplicates in each experiment, preferentially on each plate.
Efficacy was evaluated in the concentration range from […].
Concentration-dependent cAMP responses were imported into GraphPad Prism vers. 4, transformed and plotted. Curves were fitted with a function for sigmoidal dose response curve non-linear fit Y=Bottom+(Top-Bottom)/(1+10̂((LogEC50-X))) where X is the logarithm of concentration and Y is the response. Y starts at Bottom and goes to Top with a sigmoid shape. pEC50 and the maximally inducible concentration of cAMP were evaluated. Overall statistical differences were analyzed using one-way ANOVA. Post-hoc comparisons were made by the use of Fisher's Least Significance Test. Results were considered significant, when p was lower than 0.05.

CC[C@H](C)[C@H](NC(=O)[C@H](CCC(=O)O)NC(=O)C(C)(C)NC(=O)[C@@H](NC(=O)C1(N)CCCC1)C(C)C)C(=O)N[C@@H](CCC(N)=O)C(=O)N[C@@H](CC(C)C)C(=O)N[C@@H](CCSC)C(=O)N[C@@H](Cc1c[nH]cn1)C(=O)N[C@@H](CCC(N)=O)C(=O)N[C@@H](CCCCNC(=N)N)C(=O)N[C@@H](C)C(=O)N[C@H]1CCCCNC(=O)C[C@@H](C(N)=O)NC(=O)[C@H](CC(C)C)NC(=O)[C@H](Cc2c[nH]c3ccccc23)NC(=O)[C@@H](NC(=O)[C@H](C)NC(=O)[C@H](CCCCNC(=N)N)NC(=O)[C@H](CCC(N)=O)NC(=O)[C@H](Cc2c[nH]cn2)NC(=O)[C@H](CCSC)NC(=O)[C@H](CC(C)C)NC(=O)[C@H](CCC(N)=O)NC(=O)[C@@H](NC(=O)[C@H](CCC(=O)O)NC(=O)C(C)(C)NC(=O)[C@@H](NC(=O)C2(N)CCCC2)C(C)C)[C@@H](C)CC)CCCCNC(=O)C[C@@H](C(N)=O)NC(=O)[C@H](CC(C)C)NC(=O)[C@H](Cc2c[nH]c3ccccc23)NC1=O [SEQ ID NO: 33, (H-Ac5c-Val-Aib-Glu-Ile-Gln-Leu-Met-His-Gln-Har-Ala-Lys( )-Trp-Leu-Asp( )-NH2)2] (I: H-[Ac5c]V[Aib]EIQLMHQ[hArg]AKWLD-NH2 / II: H-[Ac5c]V[Aib]EIQLMHQ[hArg]AKWLD-NH2; amide I:13-II:16, I:16-II:13 (inferred))
agonist strength relative to SEQ ID NO: 30 (cAMP): eight-fold stronger agonist | Emax ± SEM [pmol/well] (maximally inducible cAMP): 5.0 ± 0.3 pmol/well
